Data on 19 molecules can be found in patent US20220143061A1, “3'3'-CYCLIC DINUCLEOTIDES AND PRODRUGS THEREOF” (INSTITUTE OF ORGANIC CHEMISTRY AND BIOCHEMISTRY ASCR, V.V.I., priority 2019, published 2022).

In assay [1] the test system is peripheral blood mononuclear cell (PBMC). The assay can be described thus: Peripheral blood mononuclear cell assay (cytokine levels). Format: cell-based. The following applies: 1 h with compound, wash, 15 hour incubation, average of one to four donors. The protocol: Selected compounds were tested in an in vitro peripheral blood mononuclear cell (PBMC) assay. […] Serially diluted tested compounds were added to wells in 50 μl of cultivation medium and cell were incubated with compounds for 1 h at 37° C. with 5% CO2. Plates with cells were then spun 500 g for 5 minutes and medium was removed. Cells were washed twice with the cell culture medium by the use of centrifugation and gently resuspended in 100 μl medium without compounds. After 15 hour incubation at 37° C. with 5% CO2, the cell culture medium was collected and the levels of interferon-alpha (INF-α), interferon-gamma (INF-γ) and tumor necrosis factor-alpha (TNF-α) were determined with ProcartaPlex Assays (ThermoFisher, Waltham, USA) and MAGPIX System (Merck KGaA, Darmstadt, Germany). […] Values reported are an average of runs from one to four donors.

The target of assay [2] is T1, human wild type STING (WT STING) (Homo sapiens, UniProt Q86WV6, H232R).
T1 construct: host or cells: 293T cells (ATCC CRL-3216), stably double transfected with pUNO1-hSTING-WT and pGL64.27-4×ISRE
Put plainly: 293T WT STING standard reporter assay. Format: cell-based. As to conditions: no digitonin, 7 hours, ISRE firefly luciferase. An excerpt: Two complementary oligonucleotides of the sequence […] […] […] […] […] The oligonucleotides were mixed in equal molar amounts, hybridized, and cleaved by restriction endonucleases HindIII (cat. #. R0104S, NEB, Ipswich, USA) and BglII (cat. #R0144S, NEB, Ipswich, USA). Ultimately, they were ligated into plasmid pGL4.27 (cat. #E6651, Promega, Madison, USA) linearized with the same enzymes. As result the sequence with four ISRE sites was placed upstream of the minimum promoter of firefly luciferase reporter gene.
After 5 minutes incubation at room temperature (RT), 250 μL of the mixture was added dropwise to the cells in one well. Cells were incubated 36 hours at 37° C. with 5% CO2, and then detached with 0.05% Trypsin and 0.22 g/L EDTA (both cat. #L0941, Biowest, Riverside, USA).
Transfected cells were seeded onto poly-D-lysine coated six well plates at density 50,000 cells per 1 cm^2 in DMEM medium with high glucose containing 10% heat inactivated FBS, 30 μg/mL blasticidin (cat. #ant-b1-05, InvivoGen, San Diego, USA), 0.06 mg/ml Penicillin G and 0.1 mg/ml Streptomycin Sulfate (both cat. #. L0018, Biowest, Riverside, USA). The medium was replenished every 3-4 days until visible colonies of cells resistant to blasticidin were formed.
Blasticidin resistant cells stably expressing WT STING were further transfected with pGL64.27-4×ISRE plasmid following the same procedure as described above. […] Homogeneous culture of stably double transfected cells was prepared by limiting dilution of cells in 96 well plates and wells with cells were selected that originated from a single cell.
The medium was removed the next day and three-fold serial dilutions of compounds in 100 μl medium were added to the cells. The plates were incubated for 7 hours at 37° C. with 5% CO2. Next 50 μl of the medium was removed from wells, and 30 μl of ONE-Glo™ Luciferase Assay System reagent (cat. #E6120, Promega, Madison, USA) was added to each well. Luminescence was read on Synergy H1 (Biotek, Winooski, USA).

The mark [3] stands for this setting: 293T wtSTING-FL cells, read-out: 293T WT STING EC50.
[4] abbreviates: 293T WT STING EC50, 293T wtSTING-FL cells.

Read-outs that look alike come from different tables or passages of the source.

T1 sequence (Q86WV6 whole entry H232R): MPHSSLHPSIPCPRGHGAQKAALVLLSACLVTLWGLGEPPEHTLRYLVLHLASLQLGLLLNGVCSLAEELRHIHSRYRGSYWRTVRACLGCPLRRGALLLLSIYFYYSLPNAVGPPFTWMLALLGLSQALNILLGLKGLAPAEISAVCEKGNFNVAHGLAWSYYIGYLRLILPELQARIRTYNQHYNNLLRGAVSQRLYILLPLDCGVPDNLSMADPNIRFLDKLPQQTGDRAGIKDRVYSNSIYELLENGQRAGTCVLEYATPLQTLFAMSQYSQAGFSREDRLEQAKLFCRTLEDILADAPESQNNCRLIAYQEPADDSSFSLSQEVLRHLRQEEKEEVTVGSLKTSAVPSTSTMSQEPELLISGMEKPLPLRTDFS

Consider `CCCCCCCCCC(=O)OCSP1(=O)OC[C@H]2O[C@@H](n3cnc4c(N)ncnc43)[C@H](F)[C@@H]2OCP(=O)(O)OC[C@H]2O[C@@H](n3cnc4c(N)ncnc43)[C@H](F)[C@@H]2O1` (single isomer, unassigned) [Compound 36a], for which the EC50 in assay [1] (read-out: PBMC EC50 IFN-α) was 2500 nM; in assay [1] (read-out: PBMC EC50 IFN-γ) it was 1600 nM; in assay [1] (read-out: PBMC EC50 TNF-α), 1200 nM.
On to `CC1(C(=O)OCOP2(=O)CO[C@H]3[C@@H](F)[C@H](n4cnc5c(N)ncnc54)O[C@@H]3COP(=O)(OCOC(=O)C3(C)CCCCC3)O[C@H]3[C@@H](F)[C@H](n4cnc5c(N)ncnc54)O[C@@H]3CO2)CCCCC1` (mixture of isomers) [Compound 45b], for which the EC50 in assay [2] (setting [3]) was determined as 30 nM; in assay [1] (read-out: PBMC EC50 IFN-α), 70 nM; in assay [1] (read-out: PBMC EC50 IFN-γ), 20 nM; in assay [1] (read-out: PBMC EC50 TNF-α), 20 nM.
Turning to `CC(C)(C)C(=O)OCOP1(=O)CO[C@H]2[C@@H](F)[C@H](n3cnc4c(N)ncnc43)O[C@@H]2COP(=O)(OCOC(=O)C(C)(C)C)O[C@H]2[C@@H](F)[C@H](n3cnc4c(N)ncnc43)O[C@@H]2CO1` (single isomer, unassigned) [Compound 41c], the EC50 in assay [2] (setting [3]) came to 11 nM; in assay [1] (read-out: PBMC EC50 IFN-α), 70 nM; in assay [1] (read-out: PBMC EC50 IFN-γ), 60 nM; in assay [1] (read-out: PBMC EC50 TNF-α), 60 nM.
`CCC(C)(C)C(=O)OCOP1(=O)CO[C@H]2[C@@H](F)[C@H](n3cnc4c(N)ncnc43)O[C@@H]2COP(=O)(OCOC(=O)C(C)(C)CC)O[C@H]2[C@@H](F)[C@H](n3cnc4c(N)ncnc43)O[C@@H]2CO1` (single isomer, unassigned) [Compound 44a]: the EC50 worked out at 10 nM in assay [2] (setting [3]), 1000 nM in assay [1] (read-out: PBMC EC50 IFN-α), 500 nM in assay [1] (read-out: PBMC EC50 IFN-γ) and 600 nM in assay [1] (read-out: PBMC EC50 TNF-α).
In the case of `CCCCCCCC(=O)OCOP1(=O)CO[C@H]2[C@@H](F)[C@H](n3cnc4c(N)ncnc43)O[C@@H]2COP(=O)(OCOC(=O)CCCCCCC)O[C@H]2[C@@H](F)[C@H](n3cnc4c(N)ncnc43)O[C@@H]2CO1` (single isomer, unassigned) [Compound 46a], the concentration for a half-maximal effect (EC50) in assay [2] (setting [3]) is 5 nM; in assay [1] (read-out: PBMC EC50 IFN-α) it was 3 nM; in assay [1] (read-out: PBMC EC50 TNF-α) it was 1 nM.
As to `CC(C)(C)C(=O)OCSP1(=O)CO[C@H]2[C@@H](F)[C@H](n3cnc4c(N)ncnc43)O[C@@H]2COP(=O)(SCOC(=O)C(C)(C)C)O[C@H]2[C@@H](F)[C@H](n3cnc4c(N)ncnc43)O[C@@H]2CO1` (single isomer, unassigned) [Compound 39b], the EC50 in assay [2] (setting [4]) was 20 nM.
With `CCC(C)(C)C(=O)OCOP1(=O)CO[C@H]2[C@@H](F)[C@H](n3cnc4c(N)ncnc43)O[C@@H]2COP(=O)(OCOC(=O)C(C)(C)CC)O[C@H]2[C@@H](F)[C@H](n3cnc4c(N)ncnc43)O[C@@H]2CO1` (single isomer, unassigned) [Compound 44c], the 50% effective concentration (EC50) in assay [2] (setting [3]) came to 6 nM; in assay [1] (read-out: PBMC EC50 IFN-α), 100 nM; in assay [1] (read-out: PBMC EC50 IFN-γ) it was 1700 nM; in assay [1] (read-out: PBMC EC50 TNF-α), 1000 nM.
Take `CC(C)OC(=O)OCOP1(=O)CO[C@H]2[C@@H](F)[C@H](n3cnc4c(N)ncnc43)O[C@@H]2COP(=O)(OCOC(=O)OC(C)C)O[C@H]2[C@@H](F)[C@H](n3cnc4c(N)ncnc43)O[C@@H]2CO1` (single isomer, unassigned) [Compound 42a]: the EC50 in assay [2] (setting [3]) was determined as 8100 nM.
In the case of `CC(C)(C)C(=O)OCOP1(=O)CO[C@H]2[C@@H](F)[C@H](n3cnc4c(N)ncnc43)O[C@@H]2COP(=O)(OCOC(=O)C(C)(C)C)O[C@H]2[C@@H](F)[C@H](n3cnc4c(N)ncnc43)O[C@@H]2CO1` (mixture of isomers) [Compound 41b, {[(1R,6R,8R,9R,10R,16R,18R,19R)-8,18-bis(6-amino-9H-purin-9-yl)-13-{[(2,2-dimethylpropanoyl)oxy]methoxy}-9,19-difluoro-3,13-dioxo-2,4,7,11,14,17-hexaoxa-3λ^5,13λ^5-diphosphatricyclo[14.3.0.0^6,^10]nonadecan-3-yl]oxy}methyl 2,2-dimethylpropanoate], the half-maximal effective concentration (EC50) in assay [2] (setting [3]) came to 30 nM; in assay [1] (read-out: PBMC EC50 IFN-α) it was 250 nM; in assay [1] (read-out: PBMC EC50 IFN-γ) it was 100 nM; in assay [1] (read-out: PBMC EC50 TNF-α) it was 40 nM.
For `CC1(C(=O)OCOP2(=O)CO[C@H]3[C@@H](F)[C@H](n4cnc5c(N)ncnc54)O[C@@H]3COP(=O)(OCOC(=O)C3(C)CCCCC3)O[C@H]3[C@@H](F)[C@H](n4cnc5c(N)ncnc54)O[C@@H]3CO2)CCCCC1` (single isomer, unassigned) [Compound 45a] the same measures were 60 nM, 1000 nM, 8000 nM and 500 nM.
For `CC(C)(C)C(=O)OCSP1(=O)CO[C@H]2[C@@H](F)[C@H](n3cnc4c(N)ncnc43)O[C@@H]2COP(=O)(SCOC(=O)C(C)(C)C)O[C@H]2[C@@H](F)[C@H](n3cnc4c(N)ncnc43)O[C@@H]2CO1` (single isomer, unassigned) [Compound 39a], the concentration for a half-maximal effect (EC50) in assay [2] (setting [4]) amounted to 1100 nM.
For the molecule `CCCCCCCCCCCCOC(=O)OCSP1(=O)OC[C@H]2O[C@@H](n3cnc4c(N)ncnc43)[C@H](F)[C@@H]2OCP(=O)(O)OC[C@H]2O[C@@H](n3cnc4c(N)ncnc43)[C@H](F)[C@@H]2O1` (stereo partly drawn) [Compound 34b, (((2R,3R,3aR,7aR,9R,10R,10aR,15aR)-2,9-bis(6-amino-9H-purin-9-yl)-3,10-difluoro-13-hydroxy-5,13-dioxidodecahydro-2H-difuro[3,2-d:3′,2′-k][1,3,7,10]tetraoxa[2,8]diphosphacyclotridecin-5-yl)thio)methyl dodecyl carbonate], the figures for the concentration giving a half-maximal response (EC50) in assay [1] (read-out: PBMC EC50 IFN-α), in assay [1] (read-out: PBMC EC50 IFN-γ) and in assay [1] (read-out: PBMC EC50 TNF-α) were 1300 nM, 500 nM and 700 nM, respectively.
For `Nc1nc2c(ncn2[C@@H]2O[C@@H]3COP(=O)(O)O[C@H]4[C@@H](O)[C@H](n5cnc6c(N)ncnc65)O[C@@H]4COP(=O)(O)O[C@@H]2[C@@H]3O)c(=O)[nH]1` [2′3′-cGAMP, reference compound] the same measures were 300000 nM, 164000 nM and 210000 nM.
As to `CC(C)(C)C(=O)OCOP1(=O)CO[C@H]2[C@@H](F)[C@H](n3cnc4c(N)ncnc43)O[C@@H]2COP(=O)(OCOC(=O)C(C)(C)C)O[C@H]2[C@@H](F)[C@H](n3cnc4c(N)ncnc43)O[C@@H]2CO1` (single isomer, unassigned) [Compound 41a], the concentration giving a half-maximal response (EC50) in assay [2] (setting [3]) amounted to 40 nM.
For the molecule `CC(C)OC(=O)OCSP1(=O)CO[C@H]2[C@@H](F)[C@H](n3cnc4c(N)ncnc43)O[C@@H]2COP(=O)(SCOC(=O)OC(C)C)O[C@H]2[C@@H](F)[C@H](n3cnc4c(N)ncnc43)O[C@@H]2CO1` (single isomer, unassigned) [Compound 40c], the EC50 in assay [2] (setting [4]) turned out to be 3900 nM.
As to `CCCCCCCCCCCC(=O)OCSP1(=O)OC[C@H]2O[C@@H](n3cnc4c(N)ncnc43)[C@H](F)[C@@H]2OCP(=O)(O)OC[C@H]2O[C@@H](n3cnc4c(N)ncnc43)[C@H](F)[C@@H]2O1` (single isomer, unassigned) [Compound 31b], the EC50 was determined as 800 nM in assay [1] (read-out: PBMC EC50 IFN-α), 300 nM in assay [1] (read-out: PBMC EC50 IFN-γ) and 500 nM in assay [1] (read-out: PBMC EC50 TNF-α).
`CCCCCCCCCC(=O)OCSP1(=O)OC[C@H]2O[C@@H](n3cnc4c(N)ncnc43)[C@H](F)[C@@H]2OCP(=O)(O)OC[C@H]2O[C@@H](n3cnc4c(N)ncnc43)[C@H](F)[C@@H]2O1` (single isomer, unassigned) [Compound 36b]: the concentration for a half-maximal effect (EC50) in assay [1] (read-out: PBMC EC50 IFN-α) is 1000 nM; in assay [1] (read-out: PBMC EC50 IFN-γ), 500 nM; in assay [1] (read-out: PBMC EC50 TNF-α) it was 800 nM.
Consider `CC(C)OC(=O)OCSP1(=O)CO[C@H]2[C@@H](F)[C@H](n3cnc4c(N)ncnc43)O[C@@H]2COP(=O)(SCOC(=O)OC(C)C)O[C@H]2[C@@H](F)[C@H](n3cnc4c(N)ncnc43)O[C@@H]2CO1` (single isomer, unassigned) [Compound 40b], for which, in assay [2] (setting [4]), the half-maximal effective concentration (EC50) came to 1200 nM.
Still for that read-out and setting: the figure for `CC(C)(C)C(=O)OCSP1(=O)CO[C@H]2[C@@H](F)[C@H](n3cnc4c(N)ncnc43)O[C@@H]2COP(=O)(SCOC(=O)C(C)(C)C)O[C@H]2[C@@H](F)[C@H](n3cnc4c(N)ncnc43)O[C@@H]2CO1` (single isomer, unassigned) [Compound 39c] is 30 nM.

A word on the EC50: it is the concentration that produces a half-maximal response.
